Experimental data taken from the supplement of paper PMC11451515.

Tested on: NOMO1
Experiment: cell viability relative to DMSO control; higher = less cytotoxic
Details: 48 h
Procedure, shortened: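 NOMO1 or SEM (500 cells/well) or P12-Ichikawa (1000 cells/well) leukemia cells were adapted for at least four passages in each medium. They were seeded in 1536-well plates (5 μl) and pin-dosed with library compounds in DMSO over an 11-point threefold series, 47 μM to 0.79 nM. CellTiter-Glo One luminescence was read after 48 h at 37°C. Viability is the per-plate percentage relative to DMSO wells, with cell-free wells as background.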

[1] = HPLM + 10% dialyzed FBS, 0.000781 µM
[2] = HPLM + 10% dialyzed FBS, 0.00234 µM
[3] = HPLM + 10% dialyzed FBS, 0.00702 µM
[4] = HPLM + 10% dialyzed FBS, 0.0211 µM
[5] = HPLM + 10% dialyzed FBS, 0.0632 µM
[6] = HPLM + 10% dialyzed FBS, 0.19 µM
[7] = HPLM + 10% dialyzed FBS, 0.569 µM
[8] = HPLM + 10% dialyzed FBS, 1.71 µM
[9] = HPLM + 10% dialyzed FBS, 5.12 µM
[10] = HPLM + 10% dialyzed FBS, 15.4 µM
[11] = HPLM + 10% dialyzed FBS, 46.1 µM
[12] = RPMI 5 mM glucose + 10% FBS, 0.000781 µM
[13] = RPMI 5 mM glucose + 10% FBS, 0.00234 µM
[14] = RPMI 5 mM glucose + 10% FBS, 0.00702 µM
[15] = RPMI 5 mM glucose + 10% FBS, 0.0211 µM
[16] = RPMI 5 mM glucose + 10% FBS, 0.0632 µM
[17] = RPMI 5 mM glucose + 10% FBS, 0.19 µM
[18] = RPMI 5 mM glucose + 10% FBS, 0.569 µM
[19] = RPMI 5 mM glucose + 10% FBS, 1.71 µM
[20] = RPMI 5 mM glucose + 10% FBS, 5.12 µM
[21] = RPMI 5 mM glucose + 10% FBS, 15.4 µM
[22] = RPMI 5 mM glucose + 10% FBS, 46.1 µM
[23] = RPMI 5 mM glucose + 10% dialyzed FBS, 0.000781 µM
[24] = RPMI 5 mM glucose + 10% dialyzed FBS, 0.00234 µM
[25] = RPMI 5 mM glucose + 10% dialyzed FBS, 0.00702 µM
[26] = RPMI 5 mM glucose + 10% dialyzed FBS, 0.0211 µM
[27] = RPMI 5 mM glucose + 10% dialyzed FBS, 0.0632 µM
[28] = RPMI 5 mM glucose + 10% dialyzed FBS, 0.19 µM
[29] = RPMI 5 mM glucose + 10% dialyzed FBS, 0.569 µM
[30] = RPMI 5 mM glucose + 10% dialyzed FBS, 1.71 µM
[31] = RPMI 5 mM glucose + 10% dialyzed FBS, 5.12 µM
[32] = RPMI 5 mM glucose + 10% dialyzed FBS, 15.4 µM
[33] = RPMI 5 mM glucose + 10% dialyzed FBS, 46.1 µM

C[S+](=O)([O-])N1CCc2c(-c3cnc(N)nc3)nc(N3CCOCC3)nc21
cell viability [1]: 105% | cell viability [2]: 102% | cell viability [3]: 112% | cell viability [4]: 118% | cell viability [5]: 104% | cell viability [6]: 107% | cell viability [7]: 86.6% | cell viability [8]: 76.4% | cell viability [9]: 77.9% | cell viability [10]: 76.2% | cell viability [11]: 74.4% | cell viability [12]: 107% | cell viability [13]: 104% | cell viability [14]: 99.3% | cell viability [15]: 110% | cell viability [16]: 102% | cell viability [17]: 99.5% | cell viability [18]: 101% | cell viability [19]: 88.9% | cell viability [20]: 95% | cell viability [21]: 81.9% | cell viability [22]: 74% | cell viability [23]: 99% | cell viability [24]: 103% | cell viability [25]: 99.6% | cell viability [26]: 97.7% | cell viability [27]: 93.6% | cell viability [28]: 96.9% | cell viability [29]: 77.3% | cell viability [30]: 69.4% | cell viability [31]: 73.7% | cell viability [32]: 69.7% | cell viability [33]: 56.8%

OC1=CC2=C(C(=C1)O)C(=O)\C=C(/O2)C3=CC=CC=C3
cell viability [1]: 106% | cell viability [2]: 106% | cell viability [3]: 103% | cell viability [4]: 116% | cell viability [5]: 109% | cell viability [6]: 116% | cell viability [7]: 108% | cell viability [8]: 118% | cell viability [9]: 121% | cell viability [10]: 93.6% | cell viability [11]: 20.2% | cell viability [12]: 101% | cell viability [13]: 97.8% | cell viability [14]: 92.1% | cell viability [15]: 97.5% | cell viability [16]: 100% | cell viability [17]: 108% | cell viability [18]: 92.7% | cell viability [19]: 96.1% | cell viability [20]: 101% | cell viability [21]: 105% | cell viability [22]: 15.6% | cell viability [23]: 91.9% | cell viability [24]: 103% | cell viability [25]: 106% | cell viability [26]: 104% | cell viability [27]: 115% | cell viability [28]: 102% | cell viability [29]: 115% | cell viability [30]: 112% | cell viability [31]: 98.9% | cell viability [32]: 98.3% | cell viability [33]: 27.6%

C=CC(=O)N1CCC[C@@H](n2nc(-c3ccc(Oc4ccccc4)cc3)c3c(N)ncnc32)C1
cell viability [12]: 117% | cell viability [13]: 117% | cell viability [14]: 113% | cell viability [15]: 101% | cell viability [16]: 110% | cell viability [17]: 99.2% | cell viability [18]: 110% | cell viability [19]: 107% | cell viability [20]: 132% | cell viability [21]: 108% | cell viability [22]: 121% | cell viability [23]: 122% | cell viability [24]: 123% | cell viability [25]: 113% | cell viability [26]: 102% | cell viability [27]: 119% | cell viability [28]: 113% | cell viability [29]: 118% | cell viability [30]: 117% | cell viability [31]: 120% | cell viability [32]: 129% | cell viability [33]: 95.9%

CC(C)C[C@H](NC(=O)[C@H](CCc1ccccc1)NC(=O)CN1CCOCC1)C(=O)N[C@@H](Cc1ccccc1)C(=O)N[C@@H](CC(C)C)C(=O)[C@@]1(C)CO1
cell viability [1]: 94.7% | cell viability [2]: 95.3% | cell viability [3]: 103% | cell viability [4]: 99.4% | cell viability [5]: 7.57% | cell viability [6]: 8.63% | cell viability [7]: 5.74% | cell viability [8]: 4.23% | cell viability [9]: 1.47% | cell viability [10]: 0.357% | cell viability [11]: 0.4% | cell viability [12]: 77.8% | cell viability [13]: 88.9% | cell viability [14]: 90% | cell viability [15]: 83.9% | cell viability [16]: 6.13% | cell viability [17]: 6.37% | cell viability [18]: 4.68% | cell viability [19]: 3.7% | cell viability [20]: 2.13% | cell viability [21]: -0.195% | cell viability [22]: -0.384% | cell viability [23]: 90.9% | cell viability [24]: 93.3% | cell viability [25]: 98.5% | cell viability [26]: 92% | cell viability [27]: 8.53% | cell viability [28]: 8.08% | cell viability [29]: 5.45% | cell viability [30]: 3.98% | cell viability [31]: 2.7% | cell viability [32]: 0.526% | cell viability [33]: -0.204%

O=C(Nc1cc2cc[nH]c2cn1)c1ccccc1
cell viability [1]: 97.5% | cell viability [2]: 116% | cell viability [3]: 94.4% | cell viability [4]: 122% | cell viability [5]: 108% | cell viability [6]: 102% | cell viability [7]: 123% | cell viability [8]: 103% | cell viability [9]: 21% | cell viability [10]: 4.39% | cell viability [11]: 0.639% | cell viability [12]: 95.6% | cell viability [13]: 101% | cell viability [14]: 97.2% | cell viability [15]: 110% | cell viability [16]: 100% | cell viability [17]: 108% | cell viability [18]: 99.4% | cell viability [19]: 88.4% | cell viability [20]: 54.6% | cell viability [21]: 18.9% | cell viability [22]: 2.79% | cell viability [23]: 96.6% | cell viability [24]: 104% | cell viability [25]: 102% | cell viability [26]: 98.5% | cell viability [27]: 103% | cell viability [28]: 105% | cell viability [29]: 105% | cell viability [30]: 94% | cell viability [31]: 59.1% | cell viability [32]: 45.9% | cell viability [33]: 7.31%

Cc1ccc([S+](=O)([O-])N[C@@H](Cc2ccccc2)C(=O)CCl)cc1
cell viability [1]: 90.2% | cell viability [2]: 100% | cell viability [3]: 119% | cell viability [4]: 119% | cell viability [5]: 87.3% | cell viability [6]: 112% | cell viability [7]: 99.1% | cell viability [8]: 107% | cell viability [9]: 106% | cell viability [10]: 101% | cell viability [11]: 47.6% | cell viability [12]: 91.8% | cell viability [13]: 89.4% | cell viability [14]: 96% | cell viability [15]: 96.9% | cell viability [16]: 97.9% | cell viability [17]: 91.4% | cell viability [18]: 90.3% | cell viability [19]: 81% | cell viability [20]: 95.1% | cell viability [21]: 90.7% | cell viability [22]: 71.1% | cell viability [23]: 88.8% | cell viability [24]: 99.6% | cell viability [25]: 94.6% | cell viability [26]: 94.6% | cell viability [27]: 100% | cell viability [28]: 85.2% | cell viability [29]: 99.4% | cell viability [30]: 108% | cell viability [31]: 97.7% | cell viability [32]: 85.1% | cell viability [33]: 73.6%

COC(=O)[C@@H]1[C@H]2C[C@H]3c4[nH]c5ccccc5c4CCN3C[C@@H]2CC[C@@H]1O
cell viability [1]: 120% | cell viability [2]: 127% | cell viability [3]: 122% | cell viability [4]: 131% | cell viability [5]: 132% | cell viability [6]: 128% | cell viability [7]: 108% | cell viability [8]: 41.2% | cell viability [9]: 39.8% | cell viability [10]: 44.5% | cell viability [11]: 35.6%

C=C(C)[C@H]1Cc2c(ccc3c2O[C@@H]2COc4cc(OC)c(OC)cc4[C@@H]2C3=O)O1
cell viability [1]: 103% | cell viability [2]: 102% | cell viability [3]: 120% | cell viability [4]: 110% | cell viability [5]: 124% | cell viability [6]: 116% | cell viability [7]: 107% | cell viability [8]: 89.2% | cell viability [9]: 52.6% | cell viability [10]: 37.3% | cell viability [11]: 28.8% | cell viability [12]: 105% | cell viability [13]: 118% | cell viability [14]: 105% | cell viability [15]: 106% | cell viability [16]: 109% | cell viability [17]: 102% | cell viability [18]: 102% | cell viability [19]: 102% | cell viability [20]: 63.8% | cell viability [21]: 23.9% | cell viability [22]: 20.4% | cell viability [23]: 99.3% | cell viability [24]: 101% | cell viability [25]: 98.4% | cell viability [26]: 99.8% | cell viability [27]: 104% | cell viability [28]: 104% | cell viability [29]: 87.8% | cell viability [30]: 98.7% | cell viability [31]: 81.5% | cell viability [32]: 29.5% | cell viability [33]: 24.1%
